Measured values as given in patent US20220259252A1, “4'-ETHYNYL-2'-DEOXYADENOSINE DERIVATIVES AND THEIR USE IN HIV THERAPY” (priority 2019, published 2022).

Legend:
[1] = tested on: HIV pseudotyped virus (NL4-3 provirus, luciferase reporter), WT, in U373 cells expressing human CD4 and CXCR4 or CCR5; experiment: Pseudotyped virus (PSV) assay, WT; settings: Human immunodeficiency virus 1, NL43, U373 MG, 72 h, read-out: WT IC50
Excerpt: A pseudotyped virus assay (PSV) was used to assess the potency of the HIV inhibitor. Replication defective virus was produced by co-transfection of a plasmid containing an NL4-3 provirus [containing a mutation in the envelope open reading frame (ORF) and a luciferase reporter gene replacing the nef ORF] and a CMV-promoter expression plasmid containing an ORF for various HIV gp160 envelope clones. The harvested virus was stored at −80 C in small aliquots and the titer of the virus measured to produce a robust signal for antiviral assays.
The PSV assay was performed by using U373 cells stably transformed to express human CD4, the primary receptor for HIV entry and either human CXCR4 or human CCR5 which are the co-receptors required for HIV entry as target cells for infection. […] This dose-range was applied to U373 cells and the pre-made pseudotyped virus added. The amount of luciferase signal produced after 3 days of culture was used to reflect the level of pseudotyped virus infection. An IC50, or the concentration of inhibitor required to reduce PSV infection by 50% from the infection containing no inhibitor was calculated. […] IC50 values were determined from a 10 point dose response curve using 3-4-fold serial dilution for each compound, which spans a concentration range >1000 fold.
These values are plotted against the molar compound concentrations using the standard four parameter logistic equation:
y=((V max*x^n)/(K^n+x^n)+Y2
Y2=minimum y n=slope factor
Vmax=maximum y x=compound concentration [M]

[2] = tested on: HIV pseudotyped virus (NL4-3 provirus, luciferase reporter), M184V, in U373 cells expressing human CD4 and CXCR4 or CCR5; assay type: cell-based; settings: PSV assay, luciferase signal after 3 days

| SMILES | IC50 [1] | IC50 [2] |
| --- | --- | --- |
| C#C[C@]1(CO)O[C@@H](n2cnc3c(N)nc(F)nc32)C[C@@H]1O [EFdA, 4′-ethynyl-2-fluoro-2′-deoxyadenosine, reference compound] | 6.5 nM | 35.1 nM |
| C#C[C@]1(CO)O[C@@H](n2cnc3c(N)nc(F)nc32)C[C@@H]1OC(=O)CCCCCCCCC(=O)O [Example 1, 10-(((2R,3S,5R)-5-(6-amino-2-fluoro-9H-purin-9-yl)-2-ethynyl-2-(hydroxymethyl)tetrahydrofuran-3-yl)oxy)-10-oxodecanoic Acid] | 78.4 nM | 348 nM |
| C#C[C@]1(CO)O[C@@H](n2cnc3c(N)nc(F)nc32)C[C@@H]1OC(=O)CCCCCCCCCCCCCCCCCCC(=O)O [Example 2, 20-(((2R,3S,5R)-5-(6-amino-2-fluoro-9H-purin-9-yl)-2-ethynyl-2-(hydroxymethyl)tetrahydrofuran-3-yl)oxy)-20-oxoicosanoic Acid] | 6.4 nM | 35.7 nM |
| C#C[C@]1(CO)O[C@@H](n2cnc3c(N)nc(F)nc32)C[C@@H]1OC(=O)CCCCCCCCCCCCC(=O)O [Example 3, 14-(((2R,3S,5R)-5-(6-amino-2-fluoro-9H-purin-9-yl)-2-ethynyl-2-(hydroxymethyl)tetrahydrofuran-3-yl)oxy)-14-oxotetradecanoic Acid] | 5.4 nM | 24.4 nM |
| C#C[C@]1(CO)O[C@@H](n2cnc3c(N)nc(F)nc32)C[C@@H]1OC(=O)COCCOC [Example 4, (2R,3S,5R)-5-(6-amino-2-fluoro-9H-purin-9-yl)-2-ethynyl-2-(hydroxymethyl)tetrahydrofuran-3-yl 2-(2-methoxyethoxy)acetate] | 3.8 nM | 25.9 nM |
| C#C[C@]1(CO)O[C@@H](n2cnc3c(N)nc(F)nc32)C[C@@H]1OC(=O)COCCOCCOC [Example 5, (2R,3S,5R)-5-(6-amino-2-fluoro-9H-purin-9-yl)-2-ethynyl-2-(hydroxymethyl)tetrahydrofuran-3-yl 2-(2-(2-methoxyethoxy)ethoxy)acetate] | 5.5 nM | 22.1 nM |
| C#C[C@]1(CO)O[C@@H](n2cnc3c(N)nc(F)nc32)C[C@@H]1OC(=O)CNC(=O)CCCCCC [Example 6, (2R,3S,5R)-5-(6-amino-2-fluoro-9H-purin-9-yl)-2-ethynyl-2-(hydroxymethyl)tetrahydrofuran-3-yl heptanoylglycinate] | 2.2 nM | 11.4 nM |
| C#C[C@]1(CO)O[C@@H](n2cnc3c(N)nc(F)nc32)C[C@@H]1OC(=O)CCCC(=O)OC(COC(=O)CCCCCC)COC(=O)CCCCCC [Example 7, (2R,3S,5R)-5-(6-amino-2-fluoro-9H-purin-9-yl)-2-ethynyl-2-(hydroxymethyl)tetrahydrofuran-3-yl (1,3-bis(heptanoyloxy)propan-2-yl) glutarate] | 232 nM | 1190 nM |
| C#C[C@]1(CO)O[C@@H](n2cnc3c(N)nc(F)nc32)C[C@@H]1OC(=O)CCCC(=O)OC(COC(=O)CCCCCCCCCCCCC)COC(=O)CCCCCCCCCCCCC [Example 8, (2R,3S,5R)-5-(6-amino-2-fluoro-9H-purin-9-yl)-2-ethynyl-2-(hydroxymethyl)tetrahydrofuran-3-yl (1,3-bis(tetradecanoyloxy)propan-2-yl) glutarate] | 1860 nM | 15000 nM |
